System: S. typhimurium TA98
Test: AMES reverse mutation assay, TA98
Assay type: cell-based
Procedure: Supplementary file 40035_2019_148_MOESM4_ESM.pdf: Additional file 4: AMES Data Summary. AMES Experimental Procedure. Approximately ten million bacteria are exposed in triplicate to VCE-003-.2 (7.8, 15.6, 31.3, 62.5, 125 and 250 μg/ml), a negative control (vehicle) and a positive control for 90 min in medium containing a low concentration of histidine (sufficient for about 2 doublings). The cultures were then diluted into indicator medium lacking histidine and dispensed into 48 wells of a 384 well plate (micro-plate format, MPF). The plate was incubated for 48 h at 37 °C, and the number of wells showing growth were counted and compared to the vehicle control. An increase in the number of colonies of at least two-fold over baseline (mean + SD of the vehicle control) and a dose response indicates a positive response. […] Where indicated, S9 fraction from the livers of Aroclor 1254-treated rats was included in the incubation at a final concentration of 4.5%. An NADPH-regenerating system is also included to ensure a steady supply of reducing equivalents. The strains used in this study were S. typhimurium TA98 (hisD3052, rfa, uvrB/pKM10 for detection of frame-shift mutations) and S. typhimurium TA100 ([…], rfa, uvrB/pKM101 for detection of base-pair substitutions). VCE-003.2 was assessed for its mutagenic potential in the AMES reverse mutation assay. This test was performed in the absence and presence of S9 metabolic activation. […] The positive controls all behaved as expected. (PDF 568 kb)

CCCCCC1=C(NCC)C(=O)C(CC=C(C)CCC=C(C)C)=C(O)C1=O [VCE-003.2, 2-(3,7-dimethyl-octa-2,6-dienyl)-6-ethylamino-3-hydroxy-5-pentyl-(1,4) benzoquinone]
AMES Result (TA98, S9 no): Negative
AMES Result (TA98, S9 yes): Negative

Reference: publication PMC6407204, “Oral administration of the cannabigerol derivative VCE-003.2 promotes subventricular zone neurogenesis and protects against mutant huntingtin-induced neurodegeneration” (Translational Neurodegeneration, 2019)
